This note sets out measurements from patent publication US8614327B2 (Vertex Pharmaceuticals Incorporated, priority 2004, dated 2013).

This assay concerns the target T1, ΔF508-CFTR (Homo sapiens, UniProt P13569, DEL508-508).
T1 construct: expressed in transfected cells
Put plainly: Membrane potential optical (FRET/VIPR) assay, identification of potentiator compounds. The class given is cell-based. To be noted: Table 3, assay not given; for % Activity: relative efficacy. Put shortly: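 Double-addition potentiator screen: compound delivered in gluconate-substituted Cl^--free medium, membrane potential followed via CC2-DMPE/DiSBAC2(3) FRET on VIPR. Cells were ΔF508-CFTR-expressing NIH3T3 mouse fibroblasts, held 2 h at 37° C. then 24 h at 27° C. before assay.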

T1 sequence (P13569 with tags, fused parts or gaps DEL508-508): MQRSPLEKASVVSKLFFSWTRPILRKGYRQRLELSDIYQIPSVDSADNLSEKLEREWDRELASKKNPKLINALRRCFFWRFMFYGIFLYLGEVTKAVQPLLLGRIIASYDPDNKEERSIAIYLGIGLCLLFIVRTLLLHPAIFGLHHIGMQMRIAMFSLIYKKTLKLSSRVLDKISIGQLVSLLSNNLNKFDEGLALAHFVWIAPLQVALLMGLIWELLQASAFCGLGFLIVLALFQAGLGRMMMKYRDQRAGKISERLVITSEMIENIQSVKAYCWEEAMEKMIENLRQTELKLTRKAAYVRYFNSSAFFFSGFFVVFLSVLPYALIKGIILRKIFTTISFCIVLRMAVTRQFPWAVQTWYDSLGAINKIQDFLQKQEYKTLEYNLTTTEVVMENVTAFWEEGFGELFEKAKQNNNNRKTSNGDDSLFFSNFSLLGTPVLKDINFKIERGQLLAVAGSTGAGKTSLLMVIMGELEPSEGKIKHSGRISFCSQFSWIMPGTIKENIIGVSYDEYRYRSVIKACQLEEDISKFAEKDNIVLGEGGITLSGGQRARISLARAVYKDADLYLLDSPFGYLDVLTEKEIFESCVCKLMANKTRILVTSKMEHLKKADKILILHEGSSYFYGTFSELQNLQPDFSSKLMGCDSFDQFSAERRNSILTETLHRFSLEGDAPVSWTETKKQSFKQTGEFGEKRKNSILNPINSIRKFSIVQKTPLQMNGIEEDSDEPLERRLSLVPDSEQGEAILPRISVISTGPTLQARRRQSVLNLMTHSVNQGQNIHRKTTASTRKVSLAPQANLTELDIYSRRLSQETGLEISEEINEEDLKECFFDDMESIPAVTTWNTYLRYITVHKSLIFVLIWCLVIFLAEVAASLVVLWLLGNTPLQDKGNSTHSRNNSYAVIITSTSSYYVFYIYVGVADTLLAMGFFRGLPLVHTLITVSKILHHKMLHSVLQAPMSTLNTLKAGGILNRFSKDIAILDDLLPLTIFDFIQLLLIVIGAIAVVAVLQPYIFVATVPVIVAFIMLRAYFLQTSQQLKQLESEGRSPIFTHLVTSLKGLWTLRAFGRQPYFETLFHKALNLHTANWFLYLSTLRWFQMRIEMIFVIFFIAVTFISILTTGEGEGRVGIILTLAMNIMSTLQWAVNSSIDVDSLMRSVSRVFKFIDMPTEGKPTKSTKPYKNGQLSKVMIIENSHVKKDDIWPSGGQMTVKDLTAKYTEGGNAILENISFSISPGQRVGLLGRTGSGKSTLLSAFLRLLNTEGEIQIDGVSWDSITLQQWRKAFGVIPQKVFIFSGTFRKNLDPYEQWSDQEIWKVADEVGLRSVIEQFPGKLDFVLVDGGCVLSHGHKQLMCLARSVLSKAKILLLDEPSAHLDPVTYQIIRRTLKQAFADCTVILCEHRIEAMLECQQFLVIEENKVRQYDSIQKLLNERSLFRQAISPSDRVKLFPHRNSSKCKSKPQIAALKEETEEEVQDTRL

Usually EC50 stands for the concentration needed to bring the measured effect to its halfway point. Consider `O=C(Nc1ccc(OC(F)(F)F)c(N2CCCC2)c1)c1c[nH]c2ccccc2c1=O` [Compound 579, 4-oxo-N-[3-pyrrolidin-1-yl-4-(trifluoromethoxy)phenyl]-1H-quinoline-3-carboxamide], for which the EC50 is less than 10 µM and the “% Activity” value was “++ (between 25% to 100%)”.

Consider `CC(C)(C)c1cc(C(C)(C)C)c(NC(=O)c2c[nH]c3c(C(F)(F)F)cccc3c2=O)cc1O` [Compound 580, N-(5-hydroxy-2,4-ditert-butyl-phenyl)-4-oxo-8-(trifluoromethyl)-1H-quinoline-3-carboxamide], for which the EC50 was less than 10 µM and the “% Activity” value is recorded as “+ (<25%)”.

On to `Cc1cccc2[nH]cc(C(=O)Nc3ccc(N4CCC[C@@H]4C)nc3C(F)(F)F)c(=O)c12` [Compound 581, (S)-5-methyl-N-(6-(2-methylpyrrolidin-1-yl)-2-(trifluoromethyl)pyridin-3-yl)-4-oxo-1,4-dihydroquinoline-3-carboxamide], for which the EC50 was less than 10 µM and the “% Activity” value is on record as “++ (between 25% to 100%)”.

For the molecule `Cc1cccc2[nH]cc(C(=O)Nc3ccc(N4C[C@@H]5CC[C@H]4C5)cc3C(F)(F)F)c(=O)c12` [Compound 582, N-(4-((1S,4R)-2-azabicyclo[2.2.1]heptan-2-yl)-2-(trifluoromethyl)phenyl)-5-methyl-4-oxo-1,4-dihydroquinoline-3-carboxamide], the EC50 is less than 10 µM and the “% Activity” value is “++ (between 25% to 100%)”.

Turning to `COc1ccc2c(=O)c(C(=O)Nc3cc(O)c(C(C)(C)C)cc3C(C)(C)C)c[nH]c2c1` [Compound 583, N-(5-hydroxy-2,4-ditert-butyl-phenyl)-7-methoxy-4-oxo-1H-quinoline-3-carboxamide], the EC50 was less than 10 µM and the “% Activity” value was “++ (between 25% to 100%)”.

With `COc1ccc2[nH]cc(C(=O)Nc3cc(O)c(C4(C)CCCCC4)cc3F)c(=O)c2c1` [Compound 584, N-[2-fluoro-5-hydroxy-4-(1-methylcyclohexyl)-phenyl]-6-methoxy-4-oxo-1H-quinoline-3-carboxamide], the EC50 is less than 10 µM and the “% Activity” value was “++ (between 25% to 100%)”.

Take `CC(C)(C)c1cc(C(C)(C)C)c(NC(=O)c2c[nH]c3cccc(N)c3c2=O)cc1O` [Compound 585, 5-amino-N-(5-hydroxy-2,4-ditert-butyl-phenyl)-4-oxo-1H-quinoline-3-carboxamide]: the EC50 was less than 10 µM and the “% Activity” value is listed as “+++ (>100%)”.

On to `CC(C)c1ccc(NC(=O)c2c[nH]c3cccc(O)c3c2=O)cc1O` [Compound 587, 5-hydroxy-N-(3-hydroxy-4-isopropyl-phenyl)-4-oxo-1H-quinoline-3-carboxamide], for which the EC50 was less than 10 µM and the “% Activity” value is “++ (between 25% to 100%)”.

On to `Cc1cc(C(C)(C)C)c(O)cc1NC(=O)c1c[nH]c2cccc(O)c2c1=O` [Compound 588, 5-hydroxy-N-(5-hydroxy-2-methyl-4-tert-butyl-phenyl)-4-oxo-1H-quinoline-3-carboxamide], for which the EC50 was less than 10 µM and the “% Activity” value is “++ (between 25% to 100%)”.

With `CC(C)c1ccc(NC(=O)c2c[nH]c3cc(F)c(F)cc3c2=O)c(C(F)(F)F)c1` [Compound 589, 6,7-difluoro-N-[4-isopropyl-2-(trifluoromethyl)phenyl]-4-oxo-1H-quinoline-3-carboxamide], the EC50 is less than 10 µM and the “% Activity” value was “++ (between 25% to 100%)”.

As to `CC(CO)(CO)c1ccc(NC(=O)c2c[nH]c3ccccc3c2=O)cc1` [Compound 590, N-[4-[2-hydroxy-1-(hydroxymethyl)-1-methyl-ethyl]phenyl]-4-oxo-1H-quinoline-3-carboxamide], the 50% effective concentration (EC50) was less than 10 µM and the “% Activity” value is “+ (<25%)”.

As for `CCc1cc2cc[nH]c2cc1NC(=O)c1c[nH]c2cccc(O)c2c1=O` [Compound 591, N-(5-ethyl-1H-indol-6-yl)-5-hydroxy-4-oxo-1H-quinoline-3-carboxamide], the EC50 is less than 10 µM and the “% Activity” value was “++ (between 25% to 100%)”.

Consider `Cc1cccc2[nH]cc(C(=O)Nc3ccc(N4[C@H](C)CC[C@@H]4C)cc3C(F)(F)F)c(=O)c12` [Compound 592, N-(4-((2R,5S)-2,5-dimethylpyrrolidin-1-yl)-2-(trifluoromethyl)phenyl)-5-methyl-4-oxo-1,4-dihydroquinoline-3-carboxamide], for which the EC50 was less than 10 µM and the “% Activity” value is on record as “++ (between 25% to 100%)”.

With `O=C(Nc1cc(N2CCCC2)cc(C(F)(F)F)c1)c1c[nH]c2ccccc2c1=O` [Compound 593, 4-oxo-N-[3-pyrrolidin-1-yl-5-(trifluoromethyl)phenyl]-1H-quinoline-3-carboxamide], the EC50 was less than 10 µM and the “% Activity” value is listed as “++ (between 25% to 100%)”.

With `CC(C)(C)c1ccc(NC(=O)c2c[nH]c3ccccc3c2=O)c(C(C)(C)C)c1O` [Compound 594, N-(3-hydroxy-2,4-ditert-butyl-phenyl)-4-oxo-1H-quinoline-3-carboxamide], the EC50 is less than 10 µM and the “% Activity” value is listed as “+++ (>100%)”.

Consider `Cc1cccc2[nH]cc(C(=O)Nc3ccc(OC4CCCC4)cc3C(F)(F)F)c(=O)c12` [Compound 595, N-[4-cyclopentoxy-2-(trifluoromethyl)phenyl]-5-methyl-4-oxo-1H-quinoline-3-carboxamide], for which the EC50 is less than 10 µM and the “% Activity” value is “++ (between 25% to 100%)”.

Turning to `O=C(Nc1cc2[nH]ccc2cc1F)c1c[nH]c2cccc(O)c2c1=O` [Compound 596, N-(5-fluoro-1H-indol-6-yl)-5-hydroxy-4-oxo-1H-quinoline-3-carboxamide], the EC50 is less than 10 µM and the “% Activity” value is given as “++ (between 25% to 100%)”.

`CC(C)c1ccc(NC(=O)c2c[nH]c3ccc(F)cc3c2=O)cc1O` [Compound 597, 6-fluoro-N-(3-hydroxy-4-isopropyl-phenyl)-4-oxo-1H-quinoline-3-carboxamide]: the “% Activity” value is “++ (between 25% to 100%)”.

On to `O=C(Nc1ccc(N2CCOCC2)cc1C(F)(F)F)c1c[nH]c2ccccc2c1=O` [Compound 598, N-[4-morpholino-2-(trifluoromethyl)phenyl]-4-oxo-1H-quinoline-3-carboxamide], for which the EC50 was less than 10 µM and the “% Activity” value is reported as “+++ (>100%)”.

Consider `O=C(Nc1cc(O)cc(C(F)(F)F)c1)c1c[nH]c2cccc(O)c2c1=O` [Compound 599, 5-hydroxy-N-[3-hydroxy-5-(trifluoromethyl)phenyl]-4-oxo-1H-quinoline-3-carboxamide], for which the EC50 was less than 10 µM and the “% Activity” value is reported as “++ (between 25% to 100%)”.

For `CC(C)(C)OC(=O)Nc1ccc(NC(=O)c2c[nH]c3ccccc3c2=O)c(C(F)(F)F)c1` [Compound 600, tert-butyl [[4-[(4-oxo-1H-quinolin-3-yl)carbonylamino]-3-(trifluoromethyl)phenyl]amino]formate], the EC50 was less than 10 µM and the “% Activity” value is “++ (between 25% to 100%)”.

Take `COc1ccc2[nH]cc(C(=O)Nc3ccc(N4CCC[C@@H]4C)cc3C(F)(F)F)c(=O)c2c1` [Compound 601, (S)-6-methoxy-N-(4-(2-methylpyrrolidin-1-yl)-2-(trifluoromethyl)phenyl)-4-oxo-1,4-dihydroquinoline-3-carboxamide]: the EC50 was less than 10 µM and the “% Activity” value is “++ (between 25% to 100%)”.
